Data taken from ChEMBL document CHEMBL3044896, “A facile route for the synthesis 1,4-disubstituted tetrazolone derivatives and evaluation of their antimicrobial activity” (2013).

Legend:
Bacillus subtilis [1] = test: Antibacterial activity against Bacillus subtilis ATCC 6633 at 100 ug/ml after 18 to 24 hr by agar well diffusion method; type: functional; conditions: read-out: IZ
Klebsiella aerogenes [2] = test: Antibacterial activity against Enterobacter aerogenes NCIM 5139 at 100 ug/ml after 18 to 24 hr by agar well diffusion method; type: functional; conditions: read-out: IZ
Staphylococcus aureus [3] = test: Antibacterial activity against Staphylococcus aureus ATCC 29737 at 100 ug/ml after 18 to 24 hr by agar well diffusion method; type: functional; conditions: read-out: IZ
Aspergillus niger [4] = test: Antifungal activity against Aspergillus niger at 100 ug/ml after 48 hr by agar well diffusion method; type: functional; conditions: read-out: IZ
Escherichia coli [5] = test: Antibacterial activity against Escherichia coli ATCC 2343 at 100 ug/ml after 18 to 24 hr by agar well diffusion method; type: functional; conditions: read-out: IZ
Candida albicans [6] = test: Antifungal activity against Candida albicans at 100 ug/ml after 48 hr by agar well diffusion method; type: functional; conditions: read-out: IZ
Escherichia coli [7] = test: microbe, parasite or virus in culture; conditions: ATCC 2343, read-out: IZ
Description: Antibacterial activity against Escherichia coli ATCC 2343 at 40 ug/ml after 18 to 24 hr by agar well diffusion method

Staphylococcus aureus [8] = test: microbe, parasite or virus in culture; conditions: ATCC 29737, read-out: IZ
Description: Antibacterial activity against Staphylococcus aureus ATCC 29737 at 40 ug/ml after 18 to 24 hr by agar well diffusion method

Klebsiella aerogenes [9] = test: Antibacterial activity against Enterobacter aerogenes NCIM 5139 at 40 ug/ml after 18 to 24 hr by agar well diffusion method; type: functional; conditions: read-out: IZ
Bacillus subtilis [10] = test: microbe, parasite or virus in culture; conditions: ATCC 6633, read-out: IZ
Description: Antibacterial activity against Bacillus subtilis ATCC 6633 at 40 ug/ml after 18 to 24 hr by agar well diffusion method

Candida albicans [11] = test: Antifungal activity against Candida albicans at 30 ug/ml after 48 hr by agar well diffusion method; type: functional; conditions: read-out: IZ
Aspergillus niger [12] = test: Antifungal activity against Aspergillus niger at 30 ug/ml after 48 hr by agar well diffusion method; type: functional; conditions: read-out: IZ

Row | SMILES | zone of inhibition at 100 µg/mL (Bacillus subtilis [1]) [mm] | zone of inhibition at 100 µg/mL (Klebsiella aerogenes [2]) [mm] | zone of inhibition at 100 µg/mL (Staphylococcus aureus [3]) [mm] | zone of inhibition at 100 µg/mL (Aspergillus niger [4]) [mm] | zone of inhibition at 100 µg/mL (Escherichia coli [5]) [mm] | zone of inhibition at 100 µg/mL (Candida albicans [6]) [mm] | zone of inhibition at 40 µg/mL (Escherichia coli [7]) [mm] | zone of inhibition at 40 µg/mL (Staphylococcus aureus [8]) [mm] | zone of inhibition at 40 µg/mL (Klebsiella aerogenes [9]) [mm] | zone of inhibition at 40 µg/mL (Bacillus subtilis [10]) [mm] | zone of inhibition at 30 µg/mL (Candida albicans [11]) [mm] | zone of inhibition at 30 µg/mL (Aspergillus niger [12]) [mm]
1 | CCOC(=O)/C(=C/c1ccc(Cl)cc1)Cn1nnn(-c2ccc(C(F)(F)F)cc2)c1=O | 15 | 11 | 15 | 9 | 9 | – | – | – | – | – | – | –
2 | COC(=O)/C(=C/c1ccc([N+](=O)[O-])cc1)Cn1nnn(-c2ccc(OC)cc2)c1=O | 10 | 8 | 12 | – | 6 | – | – | – | – | – | – | –
3 | COC(=O)/C(=C/c1ccc([N+](=O)[O-])cc1)Cn1nnn(-c2ccc(C(F)(F)F)cc2)c1=O | 10 | 8 | 12 | 11 | 6 | 12 | – | – | – | – | – | –
4 | COC(=O)/C(=C/c1ccc(OC)cc1)Cn1nnn(-c2ccc(OC)cc2)c1=O | 16 | – | 17 | 16 | – | 17 | – | – | – | – | – | –
5 | COC(=O)/C(=C/c1ccc(OC)c(OC)c1)Cn1nnn(-c2ccc(OC)cc2)c1=O | – | 17 | – | – | 9 | – | – | – | – | – | – | –
6 | COc1ccc(-n2nnn(C/C(C#N)=C/c3ccccc3)c2=O)cc1 | 12 | 11 | 17 | 6 | 7 | 9 | – | – | – | – | – | –
7 | N#C/C(=C\c1ccccc1)Cn1nnn(-c2ccc(C(F)(F)F)cc2)c1=O | 23 | 19 | 22 | 16 | 9 | 15 | – | – | – | – | – | –
8 | N#C/C(=C\c1ccc(Cl)cc1)Cn1nnn(-c2ccc(C(F)(F)F)cc2)c1=O | 7 | 14 | 13 | 5 | 7 | – | – | – | – | – | – | –
9 | Cc1ccc(/C=C(\C#N)Cn2nnn(-c3ccccc3)c2=O)cc1 | 16 | 14 | 17 | 4 | 8 | 7 | – | – | – | – | – | –
10 | COc1ccc(-n2nnn(C/C(C#N)=C/c3ccc(C)cc3)c2=O)cc1 | 16 | 16 | 19 | 15 | 14 | 19 | – | – | – | – | – | –
11 | Cc1ccc(/C=C(\C#N)Cn2nnn(-c3ccc(C(F)(F)F)cc3)c2=O)cc1 | – | 6 | – | – | 3 | – | – | – | – | – | – | –
12 | COc1ccc(/C=C(\C#N)Cn2nnn(-c3ccc(OC)cc3)c2=O)cc1 | 18 | 19 | 21 | 14 | 14 | 16 | – | – | – | – | – | –
13 | COc1ccc(/C=C(\C#N)Cn2nnn(-c3ccc(C(F)(F)F)cc3)c2=O)cc1 | 11 | 12 | 16 | 11 | 5 | 16 | – | – | – | – | – | –
14 | COc1ccc(-n2nnn(C/C(C#N)=C/c3ccc(OC)c(OC)c3)c2=O)cc1 | 11 | 16 | 21 | – | 7 | 4 | – | – | – | – | – | –
15 | COc1ccc(/C=C(\C#N)Cn2nnn(-c3ccc(C(F)(F)F)cc3)c2=O)cc1OC | 14 | 12 | 16 | 10 | 7 | 16 | – | – | – | – | – | –
16 | COC(=O)/C(=C/c1ccc(F)cc1)Cn1nnn(-c2ccccc2)c1=O | 6 | 3 | 7 | 3 | 4 | – | – | – | – | – | – | –
17 | COC(=O)/C(=C/c1ccc(F)cc1)Cn1nnn(-c2ccc(OC)cc2)c1=O | 19 | 15 | 15 | 18 | 18 | 17 | – | – | – | – | – | –
18 | COC(=O)/C(=C/c1ccc(Cl)cc1)Cn1nnn(-c2ccc(OC)cc2)c1=O | 14 | 6 | 7 | – | 5 | 5 | – | – | – | – | – | –
19 | CCOC(=O)/C(=C/c1ccc(Cl)cc1)Cn1nnn(-c2ccc(OC)cc2)c1=O | 20 | – | 22 | 11 | – | 12 | – | – | – | – | – | –
20 | CCOC(=O)/C(=C/c1ccc(Cl)cc1)Cn1nnn(-c2ccccc2)c1=O | 20 | 17 | 23 | 16 | 19 | 18 | – | – | – | – | – | –
21 | O=C(O)c1cn(C2CC2)c2cc(N3CCNCC3)c(F)cc2c1=O [CIPROFLOXACIN] | – | – | – | – | – | – | 18 | 22 | 24 | 10 | – | –
22 | CCC(C)n1ncn(-c2ccc(N3CCN(c4ccc(OCC5COC(Cn6cncn6)(c6ccc(Cl)cc6Cl)O5)cc4)CC3)cc2)c1=O (configuration not stated) [ITRACONAZOLE] | – | – | – | – | – | – | – | – | – | – | 20 | 17
